Tests used:
[1] = system: MX-1 human breast carcinoma xenograft; assay: tumor growth delay, MX-1 xenograft, single-cycle dosing (Example 3)
Protocol: Test articles were administered on the day of pair matching, Day 1.
The upper limit of acceptability is 20% weight loss.

[2] = maximum tolerated dose of the conjugate in nude mice (Example 10); format: in vivo, Charles River nude (athymic) mice; conditions: 5 consecutive daily intravenous doses, FIG. 10
Protocol: The following procedure was used to investigate the maximum tolerated dose of the vitamin B12-doxorubicin conjugate in Charles River nude (athymic) mice. Five groups of 5 mice each were weighed and then administered the first of 5 consecutive daily doses of intravenous conjugate; dose levels were 8, 16, 32, 48 and 54 mg/kg/day. Overall toxicity was assessed by weighing the mice twice weekly starting on Day 1 of dosing (the initial dose) and by frequent inspection for clinical signs and symptoms. The NCI definition of the MTD for cancer chemotherapy in mice was adopted for this study. The desirable MTD is that dose of drug mediating a maximum mean body weight loss of ≦10% and no toxic deaths. The upper limit of the MTD is that dose causing a mean 20% weight loss in the group, and one death per 10 animals. After dosing once a day for 5 consecutive days, animals were monitored for another 5 days to address recurrent and latent toxicities.

SK-N-MC cells = assay: CellTiter-Glo Luminescent Cell Viability Assay, SK-N-MC cells; format: cell-based, human; conditions: 96 hours, 100 μM down to 10 nM
Excerpt: FIG. 8 is a chart depicting the results of an in vitro assay of the stable conjugate against SK-N-MC cells, cells derived from a human brain neuroblastoma (neuroepithelioma) cell line. The assay employed is the CellTiter-Glo™ Luminescent Cell Viability Assay from Promega Corporation, which is recognized in the art as being predictive of the effect of a compound on cell viability. FIG. 8 depicts the results of the assay conducted according to Example 9. The method described by Promega Corporation (Technical Bulletin No. 288) was followed with no exceptions.
Doxorubicin and CobalaRubicin-200 stocks and stock solutions, prepared in 5% DMSO in water, were stored at −20° C. and protected from light. […]
After 96 hours, the effects of doxorubicin and B12-S-doxorubicin on cell viability were determined using an assay from Promega. The CellTiter-Glo™ Luminescent Cell Viability Assay quantitates the ATP present in a culture, which correlates with metabolically active cells. Luminescence, which is dependent on ATP concentration, was measured for each individual well on a Wallac MicroBeta® JET Liquid Scintillation and Luminescence Counter. The average luminescence value of the three wells containing medium alone was subtracted from the raw data values to give corrected values. […] Percent cell viability was calculated by considering the untreated cells as 100% viable. […]

[3] = 32 mg/kg/day x 5 days intravenous
[4] = 32 mg/kg/day x 5 days intravenous, group of 10 mice

COc1cccc2c1C(=O)c1c(O)c3c(c(O)c1C2=O)C[C@@](O)(C(=O)CO)C[C@@H]3O[C@H]1C[C@H](NC(=O)OCc2ccc(NC(=O)[C@H](CCCCN)NC(=O)[C@H](Cc3ccccc3)NC(=O)CCCCCNC(=O)OC[C@H]3O[C@H](n4cnc5cc(C)c(C)cc54)[C@H](O)[C@@H]3OP(=O)(O)O[C@H](C)CNC(=O)CC[C@@]3(C)C4=C(C)C5=NC(=CC6=NC(=C(C)C7=N[C@@](C)([C@H](N4)[C@@H]3CC(N)=O)[C@@](C)(CC(N)=O)[C@@H]7CCC(N)=O)[C@@](C)(CC(N)=O)[C@@H]6CCC(N)=O)C(C)(C)[C@@H]5CCC(N)=O)cc2)[C@H](O)[C@H](C)O1 [conjugate 13, B12-5′-OCONH(CH2)5CO-Phe-Lys-PABC-Dox]
median time to endpoint (tumor 1.5 gm) [1, 3]: 62.1 days | time to endpoint longer than control [1, 3]: 44.3 days | treatment or nontreatment related deaths [1, 3]: no treatment or nontreatment related deaths | maximum body weight loss ([1]; 32 mg/kg/day x 5 days intravenous, day 9): −8.4% | long-term, tumor-free survivors [1, 4]: 4 mice | mice that developed complete regression [1, 4]: 6 mice | time to endpoint longer than the Doxorubicin active control ([1]; 32 mg/kg/day x 5 days intravenous, Doxorubicin 3 mg/kg/day): 22.6 days | toxicity ([1]; 64 mg/kg/day x 5 days intravenous, group terminated on Day 4): severe toxicity | efficacy compared with the free drug (tumor size versus days) ([1]; FIG. 9): much greater efficacy than the free drug | change in tumor size ([1]; at about 2-4 weeks after administration, FIG. 9): substantial decrease in tumor size | additional toxicity (body weight) from increased amount of doxorubicin in the conjugate ([1]; single-cycle study, FIG. 12a, 2.3-fold increase of doxorubicin): not associated with additional toxicity | toxicity versus dose, as measured by percent mean body weight loss [2]: clear trend of increasing toxicity with increasing dose | MTD ([2]; mouse, in vivo, percent mean body weight loss, read-out: dose at which the conjugate was well tolerated (MTD study)): ≤ 48 mg/kg/day | cell viability / cytotoxicity (SK-N-MC cells; FIG. 6d and FIG. 8): very efficacious | cell viability / cytotoxicity (SK-N-MC cells; FIG. 6d and FIG. 8, listed as CobalaRubicin 200): same effectiveness as doxorubicin and is slightly less potent than doxorubicin

Reference: patent US7232805B2, “Cobalamin conjugates for anti-tumor therapy” (Inflabloc Pharmaceuticals, Inc., priority 2003, dated 2007)
